These are literature values, as cited in patent US20060172368A1, “CGT1 as an antifungal target” (priority 2002, published 2006).

For the data set the following is noted: mice, DOX 2 mg/ml in 5% sucrose as drinking water, approx. 5 ml per day.

For `C[C@H]1c2cccc(O)c2C(=O)C2=C(O)[C@]3(O)C(=O)C(C(N)=O)=C(O)[C@@H](N(C)C)[C@@H]3[C@@H](O)[C@@H]21` [doxycycline], the “concentration of DOX in serum” value is recorded as “more than 2 mg/ml of serum”.
